{"source": "patent US20070293434A9", "about": "“Binding polypeptides and methods based thereon” (priority 2000, published 2007)", "molecular_target": "BLyS (Homo sapiens, UniProt Q9Y275)", "sequence (Q9Y275 134-285 limits assumed)": "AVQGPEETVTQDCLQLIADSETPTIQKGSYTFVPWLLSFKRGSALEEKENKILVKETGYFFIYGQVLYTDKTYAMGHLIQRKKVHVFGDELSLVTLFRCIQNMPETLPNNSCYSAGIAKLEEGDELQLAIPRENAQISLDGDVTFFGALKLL", "assay": "Fluorescence anisotropy determination of BLyS-ligand dissociation constants", "assay_type": "binding", "experimental": "Dissociation constants between the synthetic peptides and BLyS (free in solution) were measured by fluorescence anisotropy (FA). In these experiments, the concentration of the fluorescein-labeled peptide is held constant and the BLyS protein concentration was varied. […] Binding reactions containing 50 nM fluorescein-labeled peptide and a varied concentration of BLyS in a volume between 10 and 20 μL per well were performed in 384 well microplates. Reactions were assayed using a Tecan Polarion fluorescence polarization plate reader. Cross-competition studies between peptides were performed using 50 nM fluorescein-labeled peptide and 1-2 μM BLyS in the presence and absence of 100 μM unlabeled peptide. […] Other buffers in which dissociation constants of BLyS Binding polypeptides were […] include: […] […] The KD of several BLyS binding BAML peptides was determined by fluorescence anisotropy, performed as previously described.", "data": [{"substance": "Ac-ANWYDSLTKLWLPDGGK-fitc [DX822]", "values": [{"measurement": "improvement in binding affinity for BLyS as compared to 453-01-B07", "setting": "compared to 453-01-B07 (SEQ ID NO:31)", "result": "more than 10 fold"}]}, {"substance": "Ac-ANWYDPLTKLSLPDGGK-fitc [DX818]", "values": [{"measurement": "decrease in affinity compared to DX814", "setting": "compared to DX814", "result": "approximately 10 fold"}]}]}
